Measurements as given in ChEMBL document CHEMBL5380817, “Discovery of LL-K8-22: A Selective, Durable, and Small-Molecule Degrader of the CDK8-Cyclin C Complex” (J Med Chem, 2023).
Activity calls are given as the source filed them. The rule behind the calls is not given here.

Legend:
[1] = biological target: Cyclin-dependent kinase 1 (Homo sapiens) (UniProt P06493); assay: Hydrophobic-tagging degradation activity at CDK1 in human MDA-MB-468 cells assessed as downregulation of CDK1 mRNA level at 1.1 to 10 uM incubated for 24 hrs by RT-qPCR analysis; format: cell-based; conditions: dose 1.1-10 µM
Sequence of Cyclin-dependent kinase 1 (Homo sapiens) (P06493 whole entry, looked up): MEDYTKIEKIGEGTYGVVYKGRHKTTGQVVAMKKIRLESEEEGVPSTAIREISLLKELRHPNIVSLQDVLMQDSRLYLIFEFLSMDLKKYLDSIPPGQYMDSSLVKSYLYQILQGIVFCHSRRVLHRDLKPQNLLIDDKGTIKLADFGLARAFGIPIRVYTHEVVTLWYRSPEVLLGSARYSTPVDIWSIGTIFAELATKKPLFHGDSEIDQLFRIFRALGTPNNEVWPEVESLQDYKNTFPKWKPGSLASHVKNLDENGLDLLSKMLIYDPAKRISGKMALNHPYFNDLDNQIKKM

[2] = biological target: T1, CDK8/Cyclin C (Homo sapiens) (UniProt P49336+P24863); assay: Hydrophobic-tagging degradation activity at CDK8/Cyclin C in human MDA-MB-468 cells assessed as protein degradation at 0.38 to 12 uM incubated for 48 hrs by Western blotting analysis; format: cell-based; conditions: dose 0.38-12 µM
[3] = biological target: T2, Cyclin-dependent kinase 8 (Homo sapiens, UniProt P49336); assay: Hydrophobic-tagging degradation activity at CDK8 in human MDA-MB-468 cells assessed as downregulation of SMAD2 protein expression at 5 uM incubated for 12 hrs by DIA-based proteomic analysis; format: cell-based
T2 sequence (P49336 whole entry): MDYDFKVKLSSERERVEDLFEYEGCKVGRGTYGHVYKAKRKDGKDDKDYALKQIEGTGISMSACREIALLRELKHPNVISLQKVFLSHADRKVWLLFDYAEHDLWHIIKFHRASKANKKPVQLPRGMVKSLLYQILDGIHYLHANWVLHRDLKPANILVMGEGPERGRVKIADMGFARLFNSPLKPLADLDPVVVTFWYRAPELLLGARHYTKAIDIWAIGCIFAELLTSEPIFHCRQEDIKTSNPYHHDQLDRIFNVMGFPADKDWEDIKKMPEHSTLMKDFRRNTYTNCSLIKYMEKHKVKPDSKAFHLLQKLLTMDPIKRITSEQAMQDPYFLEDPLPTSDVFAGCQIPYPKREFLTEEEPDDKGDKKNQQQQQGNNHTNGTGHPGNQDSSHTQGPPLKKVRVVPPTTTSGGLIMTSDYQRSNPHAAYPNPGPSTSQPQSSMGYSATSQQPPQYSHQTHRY

Cyclin-A2 (Homo sapiens) = Cyclin-A2 (Homo sapiens) (UniProt P20248); assay: PROTAC activity at Cyclin A2 in human MDA-MB-468 cells assessed as degradation of Cyclin A2 at 0.625 to 10 uM incubated for 24 hrs by Western blotting analysis; format: cell-based; conditions: dose 0.625-10 µM
Sequence of Cyclin-A2 (Homo sapiens) (P20248 whole entry): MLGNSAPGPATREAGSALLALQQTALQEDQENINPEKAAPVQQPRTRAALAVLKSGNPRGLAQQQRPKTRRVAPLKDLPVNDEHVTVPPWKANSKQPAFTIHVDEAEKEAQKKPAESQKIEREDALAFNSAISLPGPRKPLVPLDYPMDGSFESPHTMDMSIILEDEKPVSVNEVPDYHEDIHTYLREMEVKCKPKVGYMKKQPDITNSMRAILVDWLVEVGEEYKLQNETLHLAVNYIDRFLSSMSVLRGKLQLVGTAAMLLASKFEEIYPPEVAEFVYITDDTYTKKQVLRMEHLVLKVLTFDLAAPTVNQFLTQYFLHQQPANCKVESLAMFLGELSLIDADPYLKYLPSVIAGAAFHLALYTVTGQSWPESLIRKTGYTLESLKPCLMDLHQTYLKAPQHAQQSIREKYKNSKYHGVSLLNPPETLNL

[4] = biological target: T1, CDK8/Cyclin C (Homo sapiens); assay: Hydrophobic-tagging degradation activity at CDK8/Cyclin C in human HCT-116 cells assessed as protein degradation at 0.75 to 20 uM incubated for 48 hrs by Western blotting analysis; format: cell-based; conditions: dose 0.75-20 µM
[5] = biological target: T1, CDK8/Cyclin C (Homo sapiens); assay: Hydrophobic-tagging degradation activity at CDK8/Cyclin C in human MDA-MB-468 cells assessed as downregulation of C-terminal RNA polymerase II phosphorylation at serine 2 at 2 to 8 uM incubated for 24 hrs by Western blotting analysis; format: cell-based; conditions: dose 2-8 µM
MDA-MB-468 [6] = assay: Inhibition of colony formation in human MDA-MB-468 cells assessed as reduction in cell colony number at 1.25 to 20 uM incubated for 3 days by crystal violet staining based assay; format: functional; conditions: dose 1.25-20 µM, time 3.0 day
MDA-MB-231 = assay: Antiproliferative activity against human MDA-MB-231 cells assessed as inhibition of cell proliferation incubated for 4 days by Celltiter glo luminescent assay; format: functional, cell-based; conditions: MDA-MB-231, 96 h
[7] = biological target: T1, CDK8/Cyclin C (Homo sapiens); assay: Hydrophobic-tagging degradation activity at CDK8/Cyclin C in human MDA-MB-468 cells assessed as downregulation of d EAPP expression level at 4 uM incubated for 24 hrs by proteomic analysis; format: cell-based
[8] = biological target: Cyclin-dependent kinase 19 (Homo sapiens) (UniProt Q9BWU1); assay: Hydrophobic-tagging degradation activity at CDK19 in human MDA-MB-468 cells assessed as degradation of CDK19 at 0.625 to 10 uM incubated for 24 hrs by Western blotting analysis; format: cell-based; conditions: dose 0.625-10 µM
Sequence of Cyclin-dependent kinase 19 (Homo sapiens) (Q9BWU1 whole entry): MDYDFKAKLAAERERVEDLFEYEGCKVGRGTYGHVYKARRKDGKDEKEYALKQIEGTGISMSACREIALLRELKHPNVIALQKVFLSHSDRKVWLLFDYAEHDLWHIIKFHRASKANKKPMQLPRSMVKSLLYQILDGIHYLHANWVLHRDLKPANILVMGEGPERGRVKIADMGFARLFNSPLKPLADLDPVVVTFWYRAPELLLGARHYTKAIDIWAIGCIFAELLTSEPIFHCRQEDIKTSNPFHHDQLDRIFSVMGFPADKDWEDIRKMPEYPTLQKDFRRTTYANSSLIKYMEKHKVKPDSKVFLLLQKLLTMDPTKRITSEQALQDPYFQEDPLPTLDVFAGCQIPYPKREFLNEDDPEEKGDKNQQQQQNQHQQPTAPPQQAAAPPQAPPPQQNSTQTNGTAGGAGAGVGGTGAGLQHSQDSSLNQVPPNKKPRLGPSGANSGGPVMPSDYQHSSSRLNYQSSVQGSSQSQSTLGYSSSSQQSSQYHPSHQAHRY

Cyclin-C (Homo sapiens) = Cyclin-C (Homo sapiens) (UniProt P24863); assay: PROTAC activity at Cyclin C in human MDA-MB-468 cells assessed as degradation of Cyclin C at 0.625 to 10 uM incubated for 24 hrs by Western blotting analysis; format: cell-based; conditions: dose 0.625-10 µM
Sequence of Cyclin-C (Homo sapiens) (P24863 whole entry): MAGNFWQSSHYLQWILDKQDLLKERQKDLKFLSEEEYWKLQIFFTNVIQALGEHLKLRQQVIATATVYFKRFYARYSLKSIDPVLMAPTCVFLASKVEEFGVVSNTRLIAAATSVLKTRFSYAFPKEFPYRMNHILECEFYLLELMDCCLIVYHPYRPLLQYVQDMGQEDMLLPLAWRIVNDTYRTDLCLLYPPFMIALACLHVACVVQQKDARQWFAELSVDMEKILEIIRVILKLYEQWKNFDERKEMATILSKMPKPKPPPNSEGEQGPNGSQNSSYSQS

[9] = biological target: G1/S-specific cyclin-E1 (Homo sapiens) (UniProt P24864); assay: PROTAC activity at Cyclin E1 in human MDA-MB-468 cells assessed as degradation of Cyclin E1 at 0.625 to 10 uM incubated for 24 hrs by Western blotting analysis; format: cell-based; conditions: dose 0.625-10 µM
Sequence of G1/S-specific cyclin-E1 (Homo sapiens) (P24864 whole entry): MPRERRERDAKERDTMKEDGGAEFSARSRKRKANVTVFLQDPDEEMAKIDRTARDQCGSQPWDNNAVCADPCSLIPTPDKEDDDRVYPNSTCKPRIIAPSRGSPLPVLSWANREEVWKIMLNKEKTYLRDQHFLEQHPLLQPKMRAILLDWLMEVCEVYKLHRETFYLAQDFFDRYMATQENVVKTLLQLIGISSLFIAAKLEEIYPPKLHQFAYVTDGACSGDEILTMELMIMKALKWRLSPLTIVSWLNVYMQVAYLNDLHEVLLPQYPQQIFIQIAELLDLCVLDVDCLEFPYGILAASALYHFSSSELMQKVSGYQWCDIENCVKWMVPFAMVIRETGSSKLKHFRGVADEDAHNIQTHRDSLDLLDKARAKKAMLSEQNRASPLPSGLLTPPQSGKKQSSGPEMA

[10] = biological target: Cyclin-dependent kinase 7 (Homo sapiens) (UniProt P50613); assay: Hydrophobic-tagging degradation activity at CDK7 in human MDA-MB-468 cells assessed as degradation of CDK7 at 0.625 to 10 uM incubated for 24 hrs by Western blotting analysis; format: cell-based; conditions: dose 0.625-10 µM
Sequence of Cyclin-dependent kinase 7 (Homo sapiens) (P50613 whole entry): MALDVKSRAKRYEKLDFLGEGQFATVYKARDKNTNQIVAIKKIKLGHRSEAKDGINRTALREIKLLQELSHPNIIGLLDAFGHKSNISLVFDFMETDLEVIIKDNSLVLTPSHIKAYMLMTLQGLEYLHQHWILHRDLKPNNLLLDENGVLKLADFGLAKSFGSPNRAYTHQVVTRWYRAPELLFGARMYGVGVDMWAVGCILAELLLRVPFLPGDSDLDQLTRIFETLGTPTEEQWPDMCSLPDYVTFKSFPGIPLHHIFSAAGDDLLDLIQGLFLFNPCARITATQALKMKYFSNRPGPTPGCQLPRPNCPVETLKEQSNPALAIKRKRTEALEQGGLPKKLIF

[11] = biological target: T2, Cyclin-dependent kinase 8; assay: Hydrophobic-tagging degradation activity at CDK8 in human MDA-MB-468 cells assessed as degradation of CDK8 incubated for 48 hrs by Western blotting analysis; format: cell-based
MDA-MB-468 [12] = assay: Antiproliferative activity against human MDA-MB-468 cells assessed as inhibition of cell proliferation incubated for 4 days by Celltiter glo luminescent assay; format: functional, cell-based; conditions: MDA-MB-468, 96 h
[13] = biological target: T1, CDK8/Cyclin C (Homo sapiens); assay: Hydrophobic-tagging degradation activity at CDK8/Cyclin C in human MDA-MB-468 cells assessed as downregulation of STAT1 phosphorylation at Ser727 residue at 2 to 8 uM incubated for 24 hrs by Western blotting analysis; format: cell-based; conditions: dose 2-8 µM
[14] = biological target: Cyclin-dependent kinase 6 (Homo sapiens) (UniProt Q00534); assay: PROTAC activity at CDK6 in human MDA-MB-468 cells assessed as degradation of CDK6 at 0.625 to 10 uM incubated for 24 hrs by Western blotting analysis; format: cell-based; conditions: dose 0.625-10 µM
Sequence of Cyclin-dependent kinase 6 (Homo sapiens) (Q00534 whole entry): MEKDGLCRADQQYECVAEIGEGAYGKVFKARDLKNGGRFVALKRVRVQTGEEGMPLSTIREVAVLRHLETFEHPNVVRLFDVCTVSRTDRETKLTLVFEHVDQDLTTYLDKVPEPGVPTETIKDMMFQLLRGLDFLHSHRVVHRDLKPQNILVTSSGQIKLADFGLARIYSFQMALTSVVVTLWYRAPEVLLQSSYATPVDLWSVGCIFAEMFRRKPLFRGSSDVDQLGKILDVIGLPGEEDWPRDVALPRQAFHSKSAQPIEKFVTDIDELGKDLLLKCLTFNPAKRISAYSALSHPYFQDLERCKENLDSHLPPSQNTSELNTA

[15] = biological target: T1, CDK8/Cyclin C (Homo sapiens); assay: Hydrophobic-tagging degradation activity at CDK8/Cyclin C in human MDA-MB-468 cells assessed as downregulation of E2F gene expression level at 4 uM incubated for 24 hrs by qPT-PCR analysis; format: cell-based
[16] = biological target: T1, CDK8/Cyclin C (Homo sapiens); assay: Hydrophobic-tagging degradation activity at CDK8/Cyclin C in human MDA-MB-468 cells assessed as downregulation of RET gene expression level at 4 uM incubated for 24 hrs by qPT-PCR analysis; format: cell-based
[17] = biological target: Cyclin-dependent kinase 19 (Homo sapiens) (UniProt Q9BWU1); assay: Hydrophobic-tagging degradation activity at CDK19 in human MDA-MB-468 cells assessed as degradation of CDK19 protein at 5 uM incubated for 12 hrs by DIA-based proteomic analysis; format: cell-based
[18] = biological target: Cyclin-dependent kinase 5 (Homo sapiens) (UniProt Q00535); assay: PROTAC activity at CDK5 in human MDA-MB-468 cells assessed as degradation of CDK5 at 0.625 to 10 uM incubated for 24 hrs by Western blotting analysis; format: cell-based; conditions: dose 0.625-10 µM
Sequence of Cyclin-dependent kinase 5 (Homo sapiens) (Q00535 whole entry, looked up): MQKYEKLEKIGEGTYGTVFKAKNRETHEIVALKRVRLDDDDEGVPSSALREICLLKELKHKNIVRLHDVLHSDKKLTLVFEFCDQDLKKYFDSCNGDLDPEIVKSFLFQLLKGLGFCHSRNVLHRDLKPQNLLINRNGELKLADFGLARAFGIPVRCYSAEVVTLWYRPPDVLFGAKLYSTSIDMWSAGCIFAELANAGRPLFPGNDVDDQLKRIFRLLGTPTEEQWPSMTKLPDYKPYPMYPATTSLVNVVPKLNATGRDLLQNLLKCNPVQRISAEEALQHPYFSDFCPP

HCT-116 = assay: Antiproliferative activity against human HCT-116 cells assessed as inhibition of cell proliferation incubated for 4 days by Celltiter glo luminescent assay; format: functional, cell-based; conditions: HCT-116, 96 h
[19] = biological target: T1, CDK8/Cyclin C (Homo sapiens); assay: Hydrophobic-tagging degradation activity at CDK8/Cyclin C in human MDA-MB-468 cells assessed as protein degradation at 5 uM incubated for 2 to 72 hrs by Western blotting analysis; format: cell-based; conditions: time 2-72 hrs, TDE = time-dependent effect
[20] = biological target: T2, Cyclin-dependent kinase 8; assay: Hydrophobic-tagging degradation activity at CDK8 in human MDA-MB-468 cells assessed as downregulation of EAPP protein expression at 5 uM incubated for 12 hrs by DIA-based proteomic analysis; format: cell-based
[21] = biological target: T1, CDK8/Cyclin C (Homo sapiens); assay: Hydrophobic-tagging degradation activity at CDK8/Cyclin C in human MDA-MB-468 cells assessed as effect on mRNA expression level at 4 uM incubated for 24 hrs by […] analysis; format: cell-based
[22] = biological target: T1, CDK8/Cyclin C (Homo sapiens); assay: Hydrophobic-tagging degradation activity at CDK8/Cyclin C in human MDA-MB-468 cells assessed as downregulation of […] phosphorylation at Tyr701 residue at 2 to 8 uM incubated for 24 hrs by Western blotting analysis; format: cell-based; conditions: dose 2-8 µM
[23] = biological target: Cyclin-dependent kinase 4 (Homo sapiens) (UniProt P11802); assay: Hydrophobic-tagging degradation activity at CDK4 in human MDA-MB-468 cells assessed as degradation of CDK4 at 0.625 to 10 uM incubated for 24 hrs by Western blotting analysis; format: cell-based; conditions: dose 0.625-10 µM
Sequence of Cyclin-dependent kinase 4 (Homo sapiens) (P11802 whole entry): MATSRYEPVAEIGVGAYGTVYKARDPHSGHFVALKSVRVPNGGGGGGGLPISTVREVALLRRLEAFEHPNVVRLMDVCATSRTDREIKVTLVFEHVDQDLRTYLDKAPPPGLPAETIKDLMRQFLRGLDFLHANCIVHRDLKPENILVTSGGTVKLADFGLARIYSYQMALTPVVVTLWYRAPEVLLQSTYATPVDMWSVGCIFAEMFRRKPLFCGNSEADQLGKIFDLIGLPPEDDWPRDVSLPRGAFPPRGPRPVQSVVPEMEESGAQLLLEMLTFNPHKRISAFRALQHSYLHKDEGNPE

[24] = biological target: T1, CDK8/Cyclin C (Homo sapiens); assay: Hydrophobic-tagging degradation activity at CDK8/Cyclin C in human MDA-MB-468 cells assessed as protein degradation at 1.1 to 10 uM incubated for 48 hrs by Western blotting analysis; format: cell-based; conditions: dose 1.1-10 µM

Activity [1]: Active | Activity [2]: Dose-Dependent Effect | Activity [3]: Active | Activity (Cyclin-A2 (Homo sapiens)): inactive | Activity [4]: Active | Activity [5]: Dose-Dependent Effect | IC50 (MDA-MB-231): 6.22 µM | Activity [7]: Active | Activity [8]: inactive | Activity (Cyclin-C (Homo sapiens)): Active | Activity [9]: inactive | Activity [10]: inactive | DC50 [11]: 2.52 µM | IC50 (MDA-MB-468 [12]): 5.73 µM | Activity [13]: Active | Activity [14]: inactive | Activity [15]: Active | Activity [16]: Active | Activity [17]: inactive | Activity [18]: inactive | IC50 (HCT-116): 5.87 µM | Activity [19]: Tde | Activity [20]: Active | Activity [21]: inactive | Activity [22]: inactive | Activity [23]: inactive | Activity [24]: Active
SMILES: O=C(Cn1cc(-c2ccc(-c3cncc4ccccc34)cc2)cn1)N1CCN(CCCC23CC4CC(CC(C4)C2)C3)CC1
inhibition (MDA-MB-468 [6]): Active
